Here are results for one compound from BindingDB's records for PubMed 39882870 (University of Modena and Reggio Emilia).

SMILES strings stand for the structures.

The assay addresses Adenosine receptor A2a (Homo sapiens) (UniProt P29274). Description: Negative allosteric modulation of A2AR (unknown origin) expressed in CHO cells in presence of adenosine by CamBio assay.

Sequence of Adenosine receptor A2a (Homo sapiens) (P29274 whole entry, looked up): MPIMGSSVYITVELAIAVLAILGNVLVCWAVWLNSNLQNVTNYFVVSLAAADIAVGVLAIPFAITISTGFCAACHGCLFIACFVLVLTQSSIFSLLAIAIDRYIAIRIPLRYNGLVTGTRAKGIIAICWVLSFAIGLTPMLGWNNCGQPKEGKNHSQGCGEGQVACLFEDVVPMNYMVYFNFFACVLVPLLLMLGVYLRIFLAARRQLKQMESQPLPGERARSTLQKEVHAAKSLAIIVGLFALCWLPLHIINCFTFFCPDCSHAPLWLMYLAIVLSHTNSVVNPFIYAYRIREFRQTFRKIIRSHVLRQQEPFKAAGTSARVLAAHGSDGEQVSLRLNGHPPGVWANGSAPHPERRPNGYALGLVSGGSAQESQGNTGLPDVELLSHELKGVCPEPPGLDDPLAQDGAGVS

What is called IC50 is the concentration at which inhibition is half-maximal. For the compound `N#Cc1c(N)nc(N2CCCCC2)c(C#N)c1-c1cccnc1`, the IC50 stood at 9 nM.
